Assay results from ChEMBL document CHEMBL3885881, “DrugMatrix”.

Species: Rattus norvegicus
Assay: DrugMatrix - Regimen: Daily Repeat
Type: toxicity, organism-based, Sprague-Dawley
Set-up: regimen Daily Repeat, gender Male, age 6-8 weeks
Conditions: in vivo, po, route oral GAVAGE, vehicle 100 % WATER; for ABSOLUTE BASOPHIL / ABSOLUTE EOSINOPHIL / ABSOLUTE LYMPHOCYTE / ABSOLUTE MONOCYTE / ABSOLUTE SEGMENTED NEUTROPHIL / BASOPHIL / EOSINOPHIL / ERYTHROCYTE COUNT / HEMATOCRIT / HEMOGLOBIN / LEUKOCYTE COUNT / LYMPHOCYTE / MEAN CORPUSCULAR HEMOGLOBIN / MEAN CORPUSCULAR HEMOGLOBIN CONCENTRATION / MEAN CORPUSCULAR VOLUME / MONOCYTE / NEUTROPHIL / NUCLEATED RED BLOOD CELLS / PLATELET COUNT: tissue Blood; for ALANINE AMINOTRANSFERASE / ALBUMIN / ALKALINE PHOSPHATASE / ASPARTATE AMINOTRANSFERASE / BLOOD UREA NITROGEN / CARBON DIOXIDE / CHLORIDE / CHOLESTEROL / CREATINE PHOSPHOKINASE / CREATININE / GLUCOSE / LACTATE DEHYDROGENASE / LIPASE / PHOSPHORUS / POTASSIUM / SODIUM / TOTAL BILIRUBIN / TOTAL PROTEIN / URIC ACID: tissue Plasma
[1] = 900 mg/kg, 120 h, dose level Low, time 5 day
[2] = 5000 mg/kg, 72 h, dose level High, time 3 day
[3] = 5000 mg/kg, 120 h, dose level High, time 5 day

In the case of `Clc1ccc(C(c2ccccc2Cl)C(Cl)Cl)cc1` (centres undefined) [MITOTANE], the “ABSOLUTE BASOPHIL” value [1] is reported as 0 CELLS/uL, the “ABSOLUTE EOSINOPHIL” value [1] is reported as 0 CELLS/uL and the “ABSOLUTE LYMPHOCYTE” value [1] is reported as 11920 CELLS/uL. The “ABSOLUTE MONOCYTE” value [1] was 138 CELLS/uL, the “ABSOLUTE SEGMENTED NEUTROPHIL” value [1] was 942 CELLS/uL and the BASOPHIL [1] was 0%. The EOSINOPHIL [1] was 0%, the “ERYTHROCYTE COUNT” value [1] was 5.65 x10E6/uL and the HEMATOCRIT [1] was 36%. For the same compound, the HEMOGLOBIN [1] was 14.27 G/DL, the “LEUKOCYTE COUNT” value [1] was 13 x10E3/uL and the LYMPHOCYTE [1] was 91.67%. The “MEAN CORPUSCULAR HEMOGLOBIN” value [1] was 25.3 pg, the “MEAN CORPUSCULAR HEMOGLOBIN CONCENTRATION” value [1] was 39.6 G/DL and the “MEAN CORPUSCULAR VOLUME” value [1] was 63.73 fL. For the same compound, the MONOCYTE [1] was 1%, the NEUTROPHIL [1] was 7.33% and the “NUCLEATED RED BLOOD CELLS” value [1] was 0 /100WBC. For the same compound, the “PLATELET COUNT” value [1] was 1407.33 x10E3/uL, the “ALANINE AMINOTRANSFERASE” value [1] was 52 u/L and the ALBUMIN [1] was 4.07 G/DL. The “ALKALINE PHOSPHATASE” value [1] was 421.33 u/L, the “ASPARTATE AMINOTRANSFERASE” value [1] was 89.67 u/L and the “BLOOD UREA NITROGEN” value [1] was 13.67 mg/dL. The “CARBON DIOXIDE” value [1] was 30.67 mmol/L, the CHLORIDE [1] was 100 MEQ/L and the CHOLESTEROL [1] was 71 mg/dL. For the same compound, the “CREATINE PHOSPHOKINASE” value [1] was 382 u/L, the CREATININE [1] was 0.2 mg/dL and the GLUCOSE [1] was 148.67 mg/dL. The “LACTATE DEHYDROGENASE” value [1] was 632.67 u/L, the LIPASE [1] was 11 u/L and the PHOSPHORUS [1] was 12.57 mg/dL. For the same compound, the POTASSIUM [1] was 6.42 MEQ/L, the SODIUM [1] was 142.8 MEQ/L and the “TOTAL BILIRUBIN” value [1] was 0.13 mg/dL. For the same compound, the “TOTAL PROTEIN” value [1] was 6.03 G/DL, the “URIC ACID” value [1] was 2.17 mg/dL and the “ABSOLUTE BASOPHIL” value [2] was 0 CELLS/uL. For the same compound, the “ABSOLUTE EOSINOPHIL” value [2] was 124.33 CELLS/uL, the “ABSOLUTE LYMPHOCYTE” value [2] was 15356 CELLS/uL and the “ABSOLUTE MONOCYTE” value [2] was 296.33 CELLS/uL. For the same compound, the “ABSOLUTE SEGMENTED NEUTROPHIL” value [2] was 556.67 CELLS/uL, the BASOPHIL [2] was 0% and the EOSINOPHIL [2] was 0.67%. The “ERYTHROCYTE COUNT” value [2] was 5.76 x10E6/uL, the HEMATOCRIT [2] was 36.73% and the HEMOGLOBIN [2] was 14.3 G/DL. For the same compound, the “LEUKOCYTE COUNT” value [2] was 16.33 x10E3/uL, the LYMPHOCYTE [2] was 94.67% and the “MEAN CORPUSCULAR HEMOGLOBIN” value [2] was 24.83 pg. For the same compound, the “MEAN CORPUSCULAR HEMOGLOBIN CONCENTRATION” value [2] was 38.93 G/DL, the “MEAN CORPUSCULAR VOLUME” value [2] was 63.8 fL and the MONOCYTE [2] was 1.67%. For the same compound, the NEUTROPHIL [2] was 3%, the “NUCLEATED RED BLOOD CELLS” value [2] was 0 /100WBC and the “PLATELET COUNT” value [2] was 1407.33 x10E3/uL. The “ALANINE AMINOTRANSFERASE” value [2] was 75.67 u/L, the ALBUMIN [2] was 3.93 G/DL and the “ALKALINE PHOSPHATASE” value [2] was 512.67 u/L. For the same compound, the “ASPARTATE AMINOTRANSFERASE” value [2] was 87 u/L, the “BLOOD UREA NITROGEN” value [2] was 12.33 mg/dL and the “CARBON DIOXIDE” value [2] was 32.67 mmol/L. The CHLORIDE [2] was 101 MEQ/L, the CHOLESTEROL [2] was 72.33 mg/dL and the “CREATINE PHOSPHOKINASE” value [2] was 440.67 u/L. For the same compound, the CREATININE [2] was 0.19 mg/dL, the GLUCOSE [2] was 123.33 mg/dL and the “LACTATE DEHYDROGENASE” value [2] was 189.33 u/L. For the same compound, the LIPASE [2] was 10.33 u/L, the PHOSPHORUS [2] was 11.37 mg/dL and the POTASSIUM [2] was 6.63 MEQ/L. For the same compound, the SODIUM [2] was 144.03 MEQ/L, the “TOTAL BILIRUBIN” value [2] was 0.1 mg/dL and the “TOTAL PROTEIN” value [2] was 6.13 G/DL. The “URIC ACID” value [2] was 1.53 mg/dL, the “ABSOLUTE BASOPHIL” value [3] was 0 CELLS/uL and the “ABSOLUTE EOSINOPHIL” value [3] was 32.67 CELLS/uL. The “ABSOLUTE LYMPHOCYTE” value [3] was 11464 CELLS/uL, the “ABSOLUTE MONOCYTE” value [3] was 86.67 CELLS/uL and the “ABSOLUTE SEGMENTED NEUTROPHIL” value [3] was 983.33 CELLS/uL. For the same compound, the BASOPHIL [3] was 0%, the EOSINOPHIL [3] was 0.33% and the “ERYTHROCYTE COUNT” value [3] was 5.42 x10E6/uL. For the same compound, the HEMATOCRIT [3] was 34.3%, the HEMOGLOBIN [3] was 13.47 G/DL and the “LEUKOCYTE COUNT” value [3] was 12.57 x10E3/uL. For the same compound, the LYMPHOCYTE [3] was 91.33%, the “MEAN CORPUSCULAR HEMOGLOBIN” value [3] was 24.83 pg and the “MEAN CORPUSCULAR HEMOGLOBIN CONCENTRATION” value [3] was 39.3 G/DL. For the same compound, the “MEAN CORPUSCULAR VOLUME” value [3] was 63.2 fL, the MONOCYTE [3] was 0.67% and the NEUTROPHIL [3] was 7.67%. For the same compound, the “NUCLEATED RED BLOOD CELLS” value [3] was 0 /100WBC, the “PLATELET COUNT” value [3] was 1284 x10E3/uL and the “ALANINE AMINOTRANSFERASE” value [3] was 63.67 u/L. For the same compound, the ALBUMIN [3] was 4.07 G/DL, the “ALKALINE PHOSPHATASE” value [3] was 426.67 u/L and the “ASPARTATE AMINOTRANSFERASE” value [3] was 73 u/L. For the same compound, the “BLOOD UREA NITROGEN” value [3] was 15 mg/dL, the “CARBON DIOXIDE” value [3] was 34.67 mmol/L and the CHLORIDE [3] was 97.33 MEQ/L. For the same compound, the CHOLESTEROL [3] was 99.67 mg/dL, the “CREATINE PHOSPHOKINASE” value [3] was 400.67 u/L and the CREATININE [3] was 0.19 mg/dL. For the same compound, the GLUCOSE [3] was 133.33 mg/dL, the “LACTATE DEHYDROGENASE” value [3] was 123.33 u/L and the LIPASE [3] was 11.33 u/L. It also gave a PHOSPHORUS [3] of 11.97 mg/dL, a POTASSIUM [3] of 6.85 MEQ/L and an SODIUM [3] of 141.7 MEQ/L. For the same compound, the “TOTAL BILIRUBIN” value [3] was 0.2 mg/dL, the “TOTAL PROTEIN” value [3] was 6.37 G/DL and the “URIC ACID” value [3] was 1.57 mg/dL.
